In patent US11161844B2, “Cyclic substituted imidazo[4,5-c]quinoline derivatives” (Pfizer Inc., priority 2017, dated 2021):

Key:
[1] = biological target: LRRK2, WT (GST-tagged truncated LRRK2) (Homo sapiens (Human), UniProt Q5S007); assay: LRRK2 kinase assay (Lantha Screen), wild type; assay type: biochemical; conditions: 100 nM LRRKtide, 1 mM ATP, 2 μg/mL enzyme; geometric mean of 2-4 determinations unless otherwise indicated
Protocol: (§1) LRRK2 kinase activity was measured using Lantha Screen technology from Invitrogen. GST-tagged truncated LRRK2 from Invitrogen (Cat #PV4874) was incubated with a fluorescein-labeled peptide substrate based upon ezrin/radixin/moesin (ERM), also known as LRRKtide (Invitrogen cat #PR8976A), in the presence of a dose response of compound. Upon completion, the assay was stopped and detected with a terbium labeled anti-phospho-ERM antibody (Invitrogen, cat #PR8975A). The assay was carried out under the following protocol: The compound dose response was prepared by diluting compound to a top concentration of 0.3 mM in 100% DMSO and serial diluted by half-log in DMSO to give an 11 point curve, 100× final assay concentration. Using Echo acoustic dispensing, 60 nL of compound was transferred to a low volume Corning 384-well assay plate. 3 μL of a working solution of substrate (200 nM LRRKtide, 2 mM ATP) prepared in assay buffer (50 mM HEPES, pH 7.5, 3 mM MgCl2, with 2 mM DTT and 0.01% Brij35 added fresh) was added to the 60 nL compound assay plate. The kinase reaction was started with 3 μL of a working solution of LRRK2 enzyme at a concentration of 4 μg/mL. The final reaction concentrations were 100 nM LRRKtide, 1 mM ATP, 2 μg/mL LRRK2 enzyme and a compound dose response with a top dose of 3 μM. The reaction was allowed to progress at room temperature for 30 minutes and then stopped with the addition of 6 μL of detection buffer (20 mM Tris pH 7.6, 0.01% NP-40, 6 mM EDTA with 2 nM terbium labeled anti-phospho-ERM). After an incubation of 1 hour at room temperature, the plate was read on an Envision with an excitation wavelength of 340 nm and a reading emission at both 520 nm and 495 nm. The ratio of the 520 nm and 495 nm emission was used to analyze the data. Inhibition of mutant G2019S LRRK2 (Invitrogen cat #PV4881) was measured in the exact same method. All final concentrations of substrate ATP and enzyme were the same.

mutant G2019S LRRK2 = mutant G2019S LRRK2 (Homo sapiens (Human), UniProt Q5S007, G2019S); assay: LRRK2 kinase assay (Lantha Screen), mutant G2019S; assay type: biochemical; conditions: 100 nM LRRKtide, 1 mM ATP, 2 μg/mL enzyme; single determination unless otherwise indicated
Chain of mutant G2019S LRRK2 (Q5S007 970-2527 G2019S): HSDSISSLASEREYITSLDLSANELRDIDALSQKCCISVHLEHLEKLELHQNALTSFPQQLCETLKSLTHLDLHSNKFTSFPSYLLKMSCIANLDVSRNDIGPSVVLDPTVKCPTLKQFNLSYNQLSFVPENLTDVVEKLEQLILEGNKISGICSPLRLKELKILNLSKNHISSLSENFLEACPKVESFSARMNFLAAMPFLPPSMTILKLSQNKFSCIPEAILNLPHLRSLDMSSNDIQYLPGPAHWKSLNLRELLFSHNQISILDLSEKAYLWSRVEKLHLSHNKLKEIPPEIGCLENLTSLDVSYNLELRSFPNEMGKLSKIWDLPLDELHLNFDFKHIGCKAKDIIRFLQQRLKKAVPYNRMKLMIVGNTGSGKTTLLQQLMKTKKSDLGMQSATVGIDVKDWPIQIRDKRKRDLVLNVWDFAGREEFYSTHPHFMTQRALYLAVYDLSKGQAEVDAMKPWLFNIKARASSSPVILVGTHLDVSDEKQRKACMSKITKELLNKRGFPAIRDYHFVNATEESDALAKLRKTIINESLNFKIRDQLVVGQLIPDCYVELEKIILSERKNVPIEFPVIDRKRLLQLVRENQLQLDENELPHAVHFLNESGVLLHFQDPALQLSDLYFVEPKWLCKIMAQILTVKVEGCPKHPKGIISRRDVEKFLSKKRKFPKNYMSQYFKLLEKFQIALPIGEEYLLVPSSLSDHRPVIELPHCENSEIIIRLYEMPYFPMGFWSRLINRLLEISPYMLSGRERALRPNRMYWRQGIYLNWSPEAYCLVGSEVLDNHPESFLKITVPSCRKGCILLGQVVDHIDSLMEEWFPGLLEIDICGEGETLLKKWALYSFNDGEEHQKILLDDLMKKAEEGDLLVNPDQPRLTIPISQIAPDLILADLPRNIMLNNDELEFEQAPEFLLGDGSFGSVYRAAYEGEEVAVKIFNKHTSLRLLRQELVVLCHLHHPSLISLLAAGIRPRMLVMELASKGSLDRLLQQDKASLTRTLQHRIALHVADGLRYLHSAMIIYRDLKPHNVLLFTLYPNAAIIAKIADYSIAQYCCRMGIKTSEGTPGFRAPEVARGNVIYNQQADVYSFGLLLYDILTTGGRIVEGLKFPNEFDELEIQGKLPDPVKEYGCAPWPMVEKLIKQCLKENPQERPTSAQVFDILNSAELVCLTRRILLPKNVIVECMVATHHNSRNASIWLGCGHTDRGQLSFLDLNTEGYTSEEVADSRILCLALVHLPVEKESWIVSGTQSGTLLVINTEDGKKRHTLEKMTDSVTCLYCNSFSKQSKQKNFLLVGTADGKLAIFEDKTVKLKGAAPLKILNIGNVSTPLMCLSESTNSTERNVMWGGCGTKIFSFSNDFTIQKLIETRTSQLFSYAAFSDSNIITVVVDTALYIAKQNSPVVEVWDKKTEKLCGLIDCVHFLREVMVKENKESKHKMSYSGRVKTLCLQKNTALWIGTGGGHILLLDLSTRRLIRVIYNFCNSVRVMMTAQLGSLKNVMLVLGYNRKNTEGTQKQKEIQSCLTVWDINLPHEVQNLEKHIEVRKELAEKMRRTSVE
Protocol: as §1

Chain of LRRK2, WT (GST-tagged truncated LRRK2) (Q5S007 970-2527): as the sequence (Q5S007 970-2527 G2019S) above, with S1050G counted along it

Row | IC50 [1] | IC50 (mutant G2019S LRRK2) | Structure (SMILES)
1 | 4.54 nM | 5.94 nM | CN1CC(n2c(C3CCC(F)C3)nc3cnc4ccc(C#N)cc4c32)C(F)(F)C1 (stereo not drawn) [Example 57, 1-(4,4-difluoro-1-methylpyrrolidin-3-yl)-2-(3-fluorocyclopentyl)-1H-imidazo[4,5-c]quinoline-8-carbonitrile]
2 | 12.3 nM | 7.4 nM | C[C@@H]1C[C@H](n2c([C@H]3CCOC3)nc3cnc4ccc(Cl)cc4c32)CCO1 [Example 4, 8-chloro-1-[(2R,4R)-2-methyltetrahydro-2H-pyran-4-yl]-2-[(3R)-tetrahydrofuran-3-yl]-1H-imidazo[4,5-c]quinoline]
3 | 7.14 nM | 4.33 nM | CC1(C)CC(n2c(C3CCC(F)C3)nc3cnc4ccc(C#N)cc4c32)CCO1 (stereo not drawn) [Example 40, 1-(2,2-dimethyltetrahydro-2H-pyran-4-yl)-2-(3-fluorocyclopentyl)-1H-imidazo[4,5-c]quinoline-8-carbonitrile]
4 | 10.4 nM | 8.4 nM | C[C@@H]1C[C@H](n2c3c(cnc4ccc(C#N)cc43)nc2[C@H]2C[C@@](C)(F)C2)CCO1 [Example 18, 2-(cis-3-fluoro-3-methylcyclobutyl)-1-[(2R,4R)-2-methyltetrahydro-2H-pyran-4-yl]-1H-imidazo[4,5-c]quinoline-8-carbonitrile]
5 | 15.9 nM | 12.1 nM | C[C@@H]1C[C@H](n2c(C3CCC(F)(F)CC3)nc3cnc4ccc(Cl)cc4c32)CCO1 [Example 8, 8-chloro-2-(4,4-difluorocyclohexyl)-1-[(2R,4R)-2-methyltetrahydro-2H-pyran-4-yl]-1H-imidazo[4,5-c]quinoline]
6 | 6.56 nM | 4.3 nM | CN1CC[C@@H](n2c(C3CCC(F)C3)nc3cnc4ccc(C#N)cc4c32)C1 (stereo partly drawn) [Example 33, 2-[cis-3-fluorocyclopentyl]-1-[(3R)-1-methylpyrrolidin-3-yl]-1H-imidazo[4,5-c]quinoline-8-carbonitrile]
7 | 16.4 nM | 17.2 nM | C[C@@H]1C[C@H](n2c(C3CC(C)(F)C3)nc3cnc4ccc(Cl)cc4c32)CCO1 (stereo partly drawn) [Example 5, 8-chloro-2-(3-fluoro-3-methylcyclobutyl)-1-[(2R,4R)-2-methyltetrahydro-2H-pyran-4-yl]-1H-imidazo[4,5-c]quinoline]
8 | 6.81 nM | 5.44 nM | C[C@@H]1C[C@H](n2c(C3CC(C)(F)C3)nc3cnc4ccc(Cl)cc4c32)CCO1 (stereo partly drawn) [Example 3, 8-chloro-2-(cis-3-fluoro-3-methylcyclobutyl)-1-[(2R,4R)-2-methyltetrahydro-2H-pyran-4-yl]-1H-imidazo[4,5-c]quinoline]
9 | 14.2 nM | 36.5 nM | CN1CC[C@@H](n2c3c(cnc4ccc(C#N)cc43)nc2[C@H]2C[C@@](C)(F)C2)C1 [Example 22, 2-(cis-3-fluoro-3-methylcyclobutyl)-1-[(3R)-1-methylpyrrolidin-3-yl]-1H-imidazo[4,5-c]quinoline-8-carbonitrile]
10 | 64.1 nM | 49.6 nM | CC1(C)CC(n2c(C3CCC(F)C3)nc3cnc4ccc(C#N)cc4c32)CCO1 (stereo not drawn) [Example 41, 1-(2,2-dimethyltetrahydro-2H-pyran-4-yl)-2-(3-fluorocyclopentyl)-1H-imidazo[4,5-c]quinoline-8-carbonitrile]
11 | 16.3 nM | 18.2 nM | C[C@@H]1C[C@H](n2c(C3CCOCC3)nc3cnc4ccc(Cl)cc4c32)CCO1 [Example 7, 8-chloro-1-[(2R,4R)-2-methyltetrahydro-2H-pyran-4-yl]-2-(tetrahydro-2H-pyran-4-yl)-1H-imidazo[4,5-c]quinoline]
12 | 9.71 nM | 5.12 nM | N#CC[C@@H]1C[C@H](n2c3c(cnc4ccc(Cl)cc43)nc2[C@H]2CC[C@@H](F)CC2)CCO1 [Example 28, {(2S,4R)-4-[8-chloro-2-(cis-4-fluorocyclohexyl)-1H-imidazo[4,5-c]quinolin-1-yl]tetrahydro-2H-pyran-2-yl}acetonitrile]
13 | 16.2 nM | 10.6 nM | C[C@@H]1C[C@H](n2c([C@H]3CCOC3)nc3cnc4ccc(C#N)cc4c32)CCO1 [Example 16, 1-[(2R,4R)-2-methyltetrahydro-2H-pyran-4-yl]-2-[(3R)-tetrahydrofuran-3-yl]-1H-imidazo[4,5-c]quinoline-8-carbonitrile]
14 | 6.75 nM | 8.3 nM | C[C@@H]1C[C@H](n2c3c(cnc4ccc(C#N)cc43)nc2[C@H]2CC[C@@H](F)CC2)CCO1 [Example 15, 2-(cis-4-fluorocyclohexyl)-1-[(2R,4R)-2-methyltetrahydro-2H-pyran-4-yl]-1H-imidazo[4,5-c]quinoline-8-carbonitrile]
15 | 17.7 nM | 10.4 nM | C[C@@H]1C[C@H](n2c(C3CCCCC3(F)F)nc3cnc4ccc(C#N)cc4c32)CCO1 (stereo partly drawn) [Example 20, 2-(2,2-difluorocyclohexyl)-1-[(2R,4R)-2-methyltetrahydro-2H-pyran-4-yl]-1H-imidazo[4,5-c]quinoline-8-carbonitrile]
16 | 20.3 nM | 13.8 nM | C[C@@H]1C[C@H](n2c(C3CCC(F)(F)C3)nc3cnc4ccc(Cl)cc4c32)CCO1 (stereo partly drawn) [Example 11, 8-chloro-2-(3,3-difluorocyclopentyl)-1-[(2R,4R)-2-methyltetrahydro-2H-pyran-4-yl]-1H-imidazo[4,5-c]quinoline]
17 | 19.6 nM | 37.9 nM | CN1CC[C@@H](n2c(C3CCC(F)C3)nc3cnc4ccc(C#N)cc4c32)C1 (stereo partly drawn) [Example 32, 2-[cis-3-fluorocyclopentyl]-1-[(3R)-1-methylpyrrolidin-3-yl]-1H-imidazo[4,5-c]quinoline-8-carbonitrile]
18 | 6.53 nM | 4.63 nM | N#CC[C@@H]1C[C@H](n2c3c(cnc4ccc(F)cc43)nc2[C@H]2CC[C@@H](F)CC2)CCO1 [Example 29, {(2S,4R)-4-[8-fluoro-2-(cis-4-fluorocyclohexyl)-1H-imidazo[4,5-c]quinolin-1-yl]tetrahydro-2H-pyran-2-yl}acetonitrile]
